Test in all cases: inhibition of tumour cell growth, NCI panel, 48 h
The subject of experiment [1] is 786-0.
Experiment [2] concerns SNB-75.
Experiment [3] relates to SN12C.
Experiment [4] deals with UACC-257.
For experiment [5], the system named is K562.
Experiment [6] has as its system PC-3.
In experiment [7] the test system is UACC-62.
Experiment [8] deals with COLO 205.
Experiment [9] has as its system DU-145.
The test system of experiment [10] is T47D.
In experiment [11] the test system is HOP-62.
Experiment [12] deals with MOLT-4.
Experiment [13] has as its system NCI-H460.
Experiment [14] concerns IGROV-1.
The test system of experiment [15] is HCC 2998.
Experiment [16] deals with OVCAR-8.
Experiment [17] deals with RXF 393.
Experiment [18] concerns HOP-92.
Experiment [19] deals with SW-620.

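A five-concentration, 48-hour dose response in 96-well plates underlies each endpoint, interpolated linearly between surrounding concentrations. GI50: concentration for 50% inhibition of growth.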 Calls of active or inactive are those of the source. Cut-off read from the data, not from the text of the source: active = GI50 up to about 1.1 µM and inactive = higher. Square brackets hold non-standard residues; d marks the D form. Peptide text beside a SMILES is read from it. pGlu = O=C1CC[CH](C(=O)O)N1 Bounds are passed on as bounds.

For the compound `CN(C)c1ccc(C(=N/N=C2\C(=O)Nc3ccccc32)c2ccc(N(C)C)cc2)cc1`, the GI50 in experiment [1] was 0.859 µM (active); in experiment [2], 0.214 µM (active); in experiment [3], 1.67 µM (inactive); in experiment [4] it was 24.5 µM (inactive); in experiment [5] it was 0.196 µM (active); in experiment [6], 1.58 µM (inactive). Moreover, the GI50 in [7] was 0.37 µM (active); in experiment [8], 0.358 µM (active); in experiment [9], 1.91 µM (inactive); in [10], 0.771 µM (active); in experiment [11], 0.933 µM (active); in [12], 0.422 µM (active). For the same compound, the GI50 in [13] was 0.405 µM (active); in [14], 0.303 µM (active); in experiment [15], 0.643 µM (active); in experiment [16], 1 µM (active); in experiment [17], 0.172 µM (active); in experiment [18], 12.8 µM (inactive). Besides, the GI50 in experiment [19] was 0.247 µM (active).
Regarding `Brc1ccc(-c2ccc(-c3ccc(Br)s3)s2)s1`, the GI50 in experiment [1], in [2], in [3], in [4], in [5] and in experiment [6] was > 100 µM (inactive) in each case. Besides, the GI50 in [7], in [8], in experiment [9], in experiment [10], in experiment [11] and in experiment [12] was > 100 µM (inactive) each time. In addition, the GI50 in experiment [13], in [14], in [15], in experiment [16], in experiment [17] and in experiment [18] was > 100 µM (inactive) in each case. In experiment [19], the GI50 is > 100 µM (inactive).
Turning to `C=CCN1C(=O)/C(=C/c2ccc(C)cc2)NC1=S`, the GI50 was > 100 µM (inactive) in [1]; > 100 µM (inactive) in experiment [2]; > 100 µM (inactive) in [3]; 43.6 µM (inactive) in experiment [4]; 41.9 µM (inactive) in [5]; > 100 µM (inactive) in experiment [6]. The GI50 in experiment [7] is 60.1 µM (inactive); in [8] it was 63.5 µM (inactive); in experiment [9] it was > 100 µM (inactive); in experiment [10] it was 67.1 µM (inactive); in experiment [11], > 100 µM (inactive); in experiment [12], 27.1 µM (inactive). Also, the GI50 in experiment [13] was > 100 µM (inactive); in experiment [14] it was > 100 µM (inactive); in [15], > 100 µM (inactive); in [16] it was > 100 µM (inactive); in experiment [17], > 100 µM (inactive); in [18], 59.3 µM (inactive). Also, the GI50 in experiment [19] was > 100 µM (inactive).
As for `NCC(=O)NC(CO)C(=O)O` (configuration not stated), the GI50 in [1], in experiment [2], in experiment [3], in experiment [4], in [5] and in [6] was > 100 µM (inactive) in each case. In addition, the GI50 was > 100 µM (inactive) in experiment [7]; > 100 µM (inactive) in experiment [8]; > 100 µM (inactive) in experiment [9]; > 100 µM (inactive) in experiment [10]; > 100 µM (inactive) in experiment [11]; > 27.5 µM (inactive) in experiment [12]. Further, the GI50 in experiment [13], in experiment [14], in [15], in experiment [16], in experiment [17] and in experiment [18] was > 100 µM (inactive) throughout. Further, the GI50 in [19] is > 100 µM (inactive).
For `CC(C)(C)C#CI1OC(=O)c2ccccc21`, the GI50 in experiment [1] is 3.37 µM (inactive); in [2], 7.28 µM (inactive); in experiment [3], 5.2 µM (inactive); in [4], 6.05 µM (inactive); in experiment [5], 1.91 µM (inactive); in experiment [6] it was 6.31 µM (inactive). The GI50 in experiment [7] is 4.08 µM (inactive); in [8] it was 2.28 µM (inactive); in [9], 6.08 µM (inactive); in [10], 3.68 µM (inactive); in experiment [11], 10 µM (inactive); in experiment [12], 1.02 µM (active). Also, the GI50 is 4.62 µM (inactive) in [13]; 3.47 µM (inactive) in experiment [14]; 9.53 µM (inactive) in experiment [15]; 4.36 µM (inactive) in [16]; 3.62 µM (inactive) in experiment [17]; 1.72 µM (inactive) in [18]. Moreover, the GI50 in experiment [19] was 3.44 µM (inactive).
Take `CC(NC(=O)C(Cc1c[nH]cn1)NC(=O)C1CCC(=O)N1)C(N)=O` (stereo not drawn) ([pGlu]-His-Ala-NH2; configuration not given here): the GI50 in experiment [1], in [2], in experiment [3], in [5], in experiment [6] and in experiment [7] was > 100 µM (inactive) throughout. The GI50 in [8], in experiment [9], in experiment [10], in experiment [11], in experiment [12] and in experiment [13] was > 100 µM (inactive) each time. Also, the GI50 in experiment [14], in experiment [15], in [16], in experiment [17], in experiment [18] and in experiment [19] was > 100 µM (inactive) each time.
`Cc1cc(=O)oc2c(CNC(CC(C)C)C(=O)O)c(O)ccc12` (configuration not stated): the GI50 in [1] was > 100 µM (inactive); in experiment [2] it was 39.7 µM (inactive); in experiment [3], > 100 µM (inactive); in [4], > 100 µM (inactive); in experiment [5], > 100 µM (inactive); in [6], > 100 µM (inactive). Further, the GI50 in [7], in experiment [8], in experiment [9], in [10], in experiment [11] and in [12] was > 100 µM (inactive) each time. Besides, the GI50 in [13], in experiment [14], in experiment [15], in [16], in experiment [17] and in experiment [18] was > 100 µM (inactive) throughout. In [19], the GI50 was > 100 µM (inactive).
Take `COc1ccccc1NC(=S)N/N=C/c1ccccn1`: the GI50 in [1] was 0.157 µM (active); in experiment [2] it was 3.37 µM (inactive); in experiment [3], 0.74 µM (active); in experiment [4], < 0.0318 µM (active); in experiment [5], < 0.0187 µM (active); in [6], 0.054 µM (active). Also, the GI50 in experiment [7] is 0.466 µM (active); in experiment [8], 0.0352 µM (active); in experiment [9], 1.88 µM (inactive); in experiment [10], 0.0867 µM (active); in [11], 0.247 µM (active); in [12], 0.0115 µM (active). Moreover, the GI50 was 0.495 µM (active) in experiment [13]; 2.37 µM (inactive) in [15]; 0.131 µM (active) in [16]; 10.9 µM (inactive) in experiment [17]; 1.26 µM (inactive) in [18]; 0.124 µM (active) in experiment [19].
As to `O=C1C(Br)=C(Br)C(=O)c2c(O)ccc(O)c21`, the GI50 is 1.56 µM (inactive) in [1]; 18.8 µM (inactive) in experiment [2]; 7.66 µM (inactive) in experiment [3]; 5.43 µM (inactive) in [4]; 0.596 µM (active) in experiment [5]; 15.4 µM (inactive) in experiment [6]. The GI50 in [7] was 11.2 µM (inactive); in experiment [8], 1.09 µM (active); in experiment [9], 12.1 µM (inactive); in [10] it was 2.19 µM (inactive); in [11], 9.38 µM (inactive); in experiment [12] it was 0.0733 µM (active). Moreover, the GI50 in experiment [13] was 16.3 µM (inactive); in experiment [14], 14.7 µM (inactive); in [15] it was 19.8 µM (inactive); in [16], 8.83 µM (inactive); in experiment [17], 2.65 µM (inactive); in experiment [18], 2.11 µM (inactive). Further, the GI50 in experiment [19] is 1.33 µM (inactive).
On to `NC(=O)c1ccc(S(=O)(=NS(=O)(=O)c2ccccc2)c2ccc(C(N)=O)cc2)cc1`, for which the GI50 in experiment [1], in experiment [2], in [3], in experiment [4], in [5] and in [6] was > 100 µM (inactive) throughout. The GI50 in experiment [7], in experiment [8], in [9], in experiment [10], in experiment [11] and in experiment [12] was > 100 µM (inactive) in each case. For the same compound, the GI50 in experiment [13], in [14], in experiment [15], in experiment [16], in experiment [17] and in experiment [18] was > 100 µM (inactive) each time. Moreover, in [19], the GI50 is > 100 µM (inactive).
As for `O=C(O)CN1CCNCCN(CC(=O)O)CCNCC1`, the GI50 in [1] is > 42.2 µM (inactive); in [2] it was > 21.5 µM (inactive); in experiment [3], > 100 µM (inactive); in experiment [4], > 73.3 µM (inactive); in [5], 3.85 µM (inactive); in experiment [6], 19.9 µM (inactive). For the same compound, the GI50 in [7] is 38.8 µM (inactive); in experiment [8], 6.64 µM (inactive); in experiment [9] it was > 100 µM (inactive); in experiment [10] it was > 48.2 µM (inactive); in experiment [11] it was > 100 µM (inactive); in experiment [12], 5.14 µM (inactive). Moreover, the GI50 in experiment [13] is 8.49 µM (inactive); in experiment [14], 24.3 µM (inactive); in experiment [15], > 82.2 µM (inactive); in experiment [16], 42.3 µM (inactive); in experiment [17], > 100 µM (inactive); in experiment [18], 82.4 µM (inactive). For the same compound, in experiment [19], the GI50 was 4.2 µM (inactive).
